Experimental data from patent publication US20160355483A1, “COMPOUND BINDING TO PPARG BUT NOT ACTING AS PROMOTER AND PHARMACEUTICAL COMPOSITION FOR TREATING PPARG-RELATED DISEASES CONTAINING SAME AS ACTIVE INGREDIENT” (Hyundai Pharm Co., Ltd., priority 2014, published 2016).

Target: T1, PPARG (peroxisome proliferator activated receptor-gamma), GST-PPARG-LBD (Homo sapiens, UniProt P37231)
T1 construct: 15 μL of 5 nM GST-PPARG-LBD and 5 nM Tb-GST-antibody were added; purchased Invitrogen PV4894
T1 sequence (P37231 238-503 limits assumed): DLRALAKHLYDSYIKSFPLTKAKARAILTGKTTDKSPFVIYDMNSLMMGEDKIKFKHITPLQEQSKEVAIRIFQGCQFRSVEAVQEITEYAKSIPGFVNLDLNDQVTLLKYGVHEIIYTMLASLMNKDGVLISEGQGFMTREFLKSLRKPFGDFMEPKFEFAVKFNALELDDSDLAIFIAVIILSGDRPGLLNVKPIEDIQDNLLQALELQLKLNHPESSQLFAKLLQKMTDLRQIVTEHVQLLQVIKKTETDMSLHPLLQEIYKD
Experiment: LanthaScreen TR-FRET PPARG Competitive Binding Assay
Set-up: key: “+” indicates the degree of the binding activity, and as the number of “+” increases, the binding activity is stronger; ++: “+” indicates the degree of the binding activity, and as the number of “+” increases, the binding activity is stronger; +++: “+” indicates the degree of the binding activity, and as the number of “+” increases, the binding activity is stronger; ++++: “+” indicates the degree of the binding activity, and as the number of “+” increases, the binding activity is stronger
Details: degree of binding activity
How it was run: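 GST-tagged human PPARG LBD in a TR-FRET competitive binding kit, 1 h at room temperature. Read-out is the 518/488 nm emission ratio (340 nm excitation); activity = 100% − compound ratio/vehicle ratio, compared with rosiglitazone.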

| SMILES | Binding assay (1 μLM) |
| --- | --- |
| COc1cccc(CNC(=O)c2ccc3c(c2)OCCN3Cc2ccc(-c3ccccc3C(=O)O)cc2)c1 [Example 72, 4′-((7-((3-methoxybenzyl)carbamoyl)-2H-benzo[b][1,4]oxazine-4(3H)-yl)methyl)-[1,1′-biphenyl]-2-carboxylic acid] | + |
| NC(=O)c1ccccc1-c1ccc(CN2CCCc3cc(C(=O)NCc4ccc(Br)cc4)ccc32)cc1 [Example 53, N-(4-bromobenzyl)-1-((2′-carbamoyl-[1,1′-biphenyl]-4-yl)methyl)-1,2,3,4-tetrahydroquinoline-6-carboxamide] | +++ |
| C[C@H](NC(=O)c1ccc2c(c1)CCCN2Cc1ccc(-c2ccccc2C(=O)O)cc1)c1ccc2ccccc2c1 [Example 20, (S)-4′-((6-((1-(naphthalene-2-yl)ethyl)carbamoyl)-3,4-dihydroquinoline-1(2H)-yl)methyl)-[1,1′-biphenyl]-2-carboxylic acid] | ++++ |
| C[C@H](NC(=O)c1ccc2c(c1)CCCN2Cc1ccc(-c2ccccc2C(=O)O)cc1F)c1ccccc1 [Example 106] | ++++ |
| C[C@H](NC(=O)c1ccc2c(c1)CCCN2Cc1ccc(-c2ccccc2C(N)=O)cc1)c1cccc(OC(F)(F)F)c1 [Example 46, (S)-1-((2′-carbamoyl-[1,1′-biphenyl]-4-yl)methyl)-N-(1-(3-(trifluoromethoxy)phenyl)ethyl)-1,2,3,4-tetrahydroquinoline-6-carboxamide] | +++ |
| C[C@H](NC(=O)c1ccc2c(c1)OCCN2Cc1ccccc1-c1ccc(C(N)=O)cc1)c1ccccc1 [Example 143, (S)-4-((4′-carbamoyl-[1,1′-biphenyl]-2-yl)methyl)-N-(1-phenylethyl)-3,4-dihydro-2H-benzo[b][1,4]oxazine-7-carboxamide] | ++ |
| O=C(NC1COc2ccccc2C1)c1ccc2c(c1)CCCN2Cc1ccc(-c2ccccc2C(=O)O)cc1 (stereo not drawn) [Example 15, 4′-((6-(cromene-3-ylcarbamoyl)-3,4-dihydroquinoline-1(2H)-yl)methyl)-[1,1′-biphenyl]-2-carboxylic acid] | + |
| C[C@@H](NC(=O)c1ccc2c(c1)OCCN2Cc1ccc(-c2ccccc2C(N)=O)cc1)c1ccc(C#N)cc1 [Example 94, (R)-4-((2′-carbamoyl-[1,1′-biphenyl]-4-yl)methyl)-N-(1-(4-cyanophenyl)ethyl)-3,4-dihydro-2H-benzo[b][1,4]oxazine-7-carboxamide] | ++ |
| C[C@H](NC(=O)c1ccc2c(c1)CCCN2Cc1ccc(-c2ccccc2C(=O)O)cc1)c1c(F)cccc1F [Example 16, (S)-4′-((6-((1-(2,6-fluorophenyl)ethyl)carbamoyl)-3,4-dihydroquinoline-1 (2H)-yl)methyl)-[1,1′-biphenyl]-2-carboxylic acid] | +++ |
| C[C@H](NC(=O)c1ccc2c(c1)OCCN2Cc1ccc(-c2ccccc2C(=O)O)cc1)c1cccc(C(F)(F)F)c1 [Example 86, (S)-4′-((7-((1-(3-(trifluoromethyl)phenyl)ethyl)carbamoyl)-2H-benzo[b][1,4]oxazine-4(3H)-yl)methyl)-[1,1′-biphenyl]-2-carboxylic acid] | +++ |
| C[C@H](NC(=O)c1ccc2c(c1)CCCN2Cc1cccc(-c2ccccc2C(=O)O)c1)c1ccccc1 [Example 116, (S)-3′-((6-((1-phenylethyl)carbamoyl)-3,4-dihydroquinoline-1(2H)-yl)methyl)-[1,1′-biphenyl]-2-carboxylic acid] | +++ |
| C[C@H](NC(=O)c1ccc2c(c1)CCCN2Cc1ccc(-c2ccccc2C(=O)O)cc1)c1ccccc1C(F)(F)F [Example 25, (S)-4′-((6-((1-(2-(trifluoromethyl)phenyl)ethyl)carbamoyl)-3,4-dihydroquinoline-1(2)-yl)methyl)-[1,1′-biphenyl]-2-carboxylic acid] | +++ |
